The source of these data is patent publication US10508118B2, “Pyrimidopyrrole compounds, method for preparing the same, pharmaceutical compositions comprising the same and uses thereof” (Xiamen University, priority 2015, dated 2019).

Type in all cases: cell-based
One test deals with T1, EML4-ALK-BaF3 (Homo sapiens, UniProt Q9UM73).
T1 construct: expressed in transfected cells; host or cells: Ba/F3 cells; the other entry of the earlier key: EML4 (Q9HC35, Echinoderm microtubule-associated protein-like 4)
Put plainly: Growth inhibition of EML4-ALK transformed BaF3 cells (MTS). Particulars: EML4-ALK-BaF3 cells, 48 hours, MTS. On the procedure: (§1) If compounds can inhibit the activity of ALK kinase or the activity of ALK signaling pathway, they can inhibit the growth of ALK transformed Ba/F3 cells. […] The broad-spectrum toxicity of compounds can be evaluated by determining the effect of the compounds on the growth of wild type BaF3 cells.
(§2) 1) Medium: DMEM (Dulbecco's modified eagle medium) or RPMI1640 (containing 10% fetal bovine serum, 100 μg/mL ampicillin, 100 μg/mL streptomycin).)
(§3) Reagents: MTS solution (2 mg/mL MTS (3-(4,5-dimethylthiazol-2-yl)-5-(3-carboxymethoxyphenyl)-2-(4-sulfophenyl)-2H-tetrazolium, inner salt); 100 μg/mL PES ([…])).
(§4) 3) Test of compound: Transformed Ba/F3 cells (EML4-ALK-BaF3, EML4-ALK(L1196M)-BaF3, NPM-ALK-BaF3) (2×10^4/well) were distributed into 96-well plates, with volume of cell sap of 90 μL, 10 μL of compounds in gradient concentration (the highest concentration 10 was μM, followed by 1/3 step by step dilution, a total of 8 concentrations were set, the system contained 0.1% DMSO (dimethyl sulfoxide)). The cell plates mixed with compounds were cultured in a cell incubator (37° C.; 5% CO2) for 48 hours, and the added 20 μL of MTS reaction solution, mixed and incubated in cell incubator (37° C.; 5% CO2) for 1-4 hours. The OD value at a wavelength of 490 nm was measured using eliasa (VARIOSKAN FLASH, Thermo). Three parallels were set up for each group, with a final concentration of 0.1% DMSO as negative control, and with medium without cells and compounds as blank control.
(§5) 4) Calculation of IC50 value: the semi inhibitory concentration of the compound acting on the cells was calculated using GradPad Prism 5 software according to the cell inhibitory rate measured.

Another test concerns the target T2, EML4-ALK (L1196M)-BaF3 (Homo sapiens, UniProt Q9UM73, L1196M).
T2 construct: expressed in transfected cells; host or cells: Ba/F3 cells; the other entry of the earlier key: EML4 (Q9HC35, Echinoderm microtubule-associated protein-like 4)
As to the kind of experiment: Growth inhibition of EML4-ALK (L1196M) transformed BaF3 cells (MTS). The following applies: 48 hours. On the procedure:
as §1, §2, §3, §4, §5

Another test addresses T3, NPM-ALK-BaF3 (Homo sapiens, UniProt Q9UM73).
T3 construct: expressed in transfected cells; host or cells: Ba/F3 cells; the other entry of the earlier key: NPM1 (P06748, Nucleophosmin)
As to the kind of experiment: Growth inhibition of NPM-ALK transformed BaF3 cells (MTS). The following applies: 48 hours, Table 11. On the procedure:
(§6) The activity of compounds against ALK kinase was evaluated by inhibiting the growth of cellular ALK kinase EML4-ALK-BaF3, EML4-ALK (L1196M)-BaF3, NPM-ALK-BaF3, and wild type BaF3 (Proc. Natl. Acad. Sci. USA., 2006, 103, 3153-8.) The growth of cellular ALK kinase EML4-ALK-BaF3, EML4-ALK(L1196M)-BaF3, and NPM-ALK-BaF3 depends on their kinase activity. If compounds can inhibit the activity of ALK kinase or the activity of ALK signaling pathway, they can inhibit the growth of ALK transformed Ba/F3 cells. […] The broad-spectrum toxicity of compounds can be evaluated by determining the effect of the compounds on the growth of wild type BaF3 cells.
as §2, §3
as §4, with “control. The inhibition rate of cell growth was calculated by the following formula: Cell inhibition rate %=1−(OD experimental group−OD blank group)/(OD negative group−OD blank group)*100%” for “control.”
as §5

For a further test, the system named is wild type BaF3. As to the kind of experiment: Growth inhibition of wild type BaF3 cells (broad-spectrum toxicity). Particulars: Mus musculus, BaF3, 48 h, MTS. As for the experimental part:
as §6, §2, §3
as §4, with “control. The inhibition rate of cell growth was calculated by the following formula: Cell inhibition rate %=1−(OD experimental group−OD blank group)/(OD negative group−OD blank group)*100%” for “control.”
as §5

The mark [1] stands for this setting: Table 11, read-out: EML4-ALK (L1196M) (IC50 nM).

Each structure is given as a SMILES string. Read-outs that look alike come from different tables or passages of the source.

The term IC50 denotes the point on the concentration scale where inhibition reaches its midpoint. For `COc1cc(N2CCN(C)CC2)ccc1Nc1nc(Nc2ccccc2SC)c2[nH]ccc2n1` [IA-1], the IC50 at EML4-ALK-BaF3 (Table 11) was 1370 nM; at EML4-ALK (L1196M)-BaF3 (setting [1]), 1800 nM; against NPM-ALK-BaF3, 703 nM; in the test on wild type BaF3 (Table 11), roughly 2790 nM.
For `CSc1ccccc1Nc1nc(Nc2ccc(N3CCC(O)CC3)cc2)nc2cc[nH]c12` [IA-2], in that order: 649 nM, 761 nM, 1030 nM and 1520 nM.
For `CSc1ccccc1Nc1nc(Nc2ccc(S(N)(=O)=O)cc2)nc2cc[nH]c12` [IA-3], in that order: 2420 nM, 6630 nM, 12900 nM and 7710 nM.
For the compound `COc1cc(N2CCN(C)CC2)ccc1Nc1nc(Nc2ccccc2SC(C)C)c2[nH]ccc2n1` [IB-1], the IC50 against EML4-ALK-BaF3 (Table 11) is roughly 895 nM; on EML4-ALK (L1196M)-BaF3 (setting [1]), roughly 2410 nM; on NPM-ALK-BaF3, 1450 nM; in the test with wild type BaF3 (Table 11), roughly 2800 nM.
For `CC(C)Sc1ccccc1Nc1nc(Nc2ccc(N3CCC(O)CC3)cc2)nc2cc[nH]c12` [IB-2], in that order: 786 nM, 1740 nM, 1770 nM and 1920 nM.
The matching figures for `CC(C)Sc1ccccc1Nc1nc(Nc2ccc(S(N)(=O)=O)cc2)nc2cc[nH]c12` [IB-3]: 4220 nM, 8700 nM, 8830 nM and greater than 10000 nM.
Consider `COc1cc(N2CCN(C)CC2)ccc1Nc1nc(Nc2ccccc2S(C)(=O)=O)c2[nH]ccc2n1` [IC-1], for which the IC50 against EML4-ALK-BaF3 (Table 11) was 3930 nM; at EML4-ALK (L1196M)-BaF3 (setting [1]), roughly 7250 nM; against NPM-ALK-BaF3 it was roughly 4560 nM; with wild type BaF3 (Table 11) it was greater than 10000 nM.
`COc1cc(N2CCC(N3CCN(C)CC3)CC2)ccc1Nc1nc(Nc2ccccc2S(C)(=O)=O)c2[nH]ccc2n1` [IC-2]: the IC50 at EML4-ALK-BaF3 (Table 11) was 3680 nM; on EML4-ALK (L1196M)-BaF3 (setting [1]) it was roughly 6860 nM; against NPM-ALK-BaF3, roughly 4910 nM; in the test with wild type BaF3 (Table 11) it was roughly 8770 nM.
For `CS(=O)(=O)c1ccccc1Nc1nc(Nc2ccc(N3CCC(O)CC3)cc2)nc2cc[nH]c12` [IC-3], in that order: greater than 10000 nM, greater than 10000 nM, greater than 10000 nM and greater than 10000 nM.
For `CS(=O)(=O)c1ccccc1Nc1nc(Nc2ccc(S(N)(=O)=O)cc2)nc2cc[nH]c12` [IC-4], in that order: greater than 10000 nM, greater than 10000 nM, greater than 10000 nM and greater than 10000 nM.
Consider `CN1CCN(c2ccc(Nc3nc(Nc4ccccc4S(C)(=O)=O)c4[nH]ccc4n3)cc2)CC1` [IC-5], for which the IC50 is 4080 nM on EML4-ALK-BaF3 (Table 11), roughly 3350 nM at EML4-ALK (L1196M)-BaF3 (setting [1]), 5260 nM against NPM-ALK-BaF3 and 4590 nM in the test on wild type BaF3 (Table 11).
For `COc1cc(N2CCN(C)CC2)ccc1Nc1nc(Nc2ccccc2S(=O)(=O)C(C)C)c2[nH]ccc2n1` [ID-1], in that order: 477 nM, 737 nM, 796 nM and roughly 8390 nM.
For `CC(C)S(=O)(=O)c1ccccc1Nc1nc(Nc2ccc(N3CCN(C)CC3)cc2)nc2cc[nH]c12` [ID-2], in that order: 1170 nM, 2030 nM, roughly 2850 nM and roughly 8310 nM.
For `CC(C)S(=O)(=O)c1ccccc1Nc1nc(Nc2ccc(N3CCC(O)CC3)cc2)nc2cc[nH]c12` [ID-4], in that order: 2860 nM, 6150 nM, roughly 8930 nM and greater than 10000 nM.
In the case of `CC(C)S(=O)(=O)c1ccccc1Nc1nc(Nc2ccc(S(N)(=O)=O)cc2)nc2cc[nH]c12` [ID-5], the IC50 on EML4-ALK-BaF3 (Table 11), on EML4-ALK (L1196M)-BaF3 (setting [1]), at NPM-ALK-BaF3 and in the test on wild type BaF3 (Table 11) was greater than 10000 nM in each case.
Consider `Cc1cc(Nc2nc(Nc3ccccc3S(=O)(=O)C(C)C)c3[nH]ccc3n2)c(OC(C)C)cc1C1CCN(C)CC1` [ID-6], for which the IC50 against EML4-ALK-BaF3 (Table 11) is 1510 nM; on EML4-ALK (L1196M)-BaF3 (setting [1]) it was roughly 2650 nM; at NPM-ALK-BaF3 it was 1020 nM; with wild type BaF3 (Table 11) it was roughly 2840 nM.
The matching figures for `COc1cc(C2CCN(C)CC2)c(C)cc1Nc1nc(Nc2ccccc2S(=O)(=O)C(C)C)c2[nH]ccc2n1` [ID-7]: 544 nM, roughly 1080 nM, roughly 1170 nM and roughly 2960 nM.
For `CC(C)S(=O)(=O)c1ccccc1Nc1nc(Nc2cnn(C3CCN(C)CC3)c2)nc2cc[nH]c12` [ID-8], the IC50 is 5170 nM at EML4-ALK-BaF3 (Table 11), 5680 nM on EML4-ALK (L1196M)-BaF3 (setting [1]), greater than 10000 nM at NPM-ALK-BaF3 and greater than 10000 nM with wild type BaF3 (Table 11).
Regarding `COC(=O)c1ccccc1Nc1nc(Nc2ccc(N3CCN(C)CC3)cc2OC)nc2cc[nH]c12` [IG-1], the IC50 at EML4-ALK-BaF3 (Table 11) was found to be 1470 nM; on EML4-ALK (L1196M)-BaF3 (setting [1]), 1160 nM; on NPM-ALK-BaF3 it was 1800 nM; in the test with wild type BaF3 (Table 11), 2340 nM.
The matching figures for `COC(=O)c1ccccc1Nc1nc(Nc2ccc(N3CCC(N4CCN(C)CC4)CC3)cc2OC)nc2cc[nH]c12` [IG-2]: 1200 nM, 1190 nM, 1430 nM and 1800 nM.
The matching figures for `COC(=O)c1ccccc1Nc1nc(Nc2ccc(N3CCC(O)CC3)cc2)nc2cc[nH]c12` [IG-3]: 2720 nM, 5040 nM, 6930 nM and 6870 nM.
On to `COC(=O)c1ccccc1Nc1nc(Nc2ccc(S(N)(=O)=O)cc2)nc2cc[nH]c12` [IG-4], for which the IC50 came to 5110 nM on EML4-ALK-BaF3 (Table 11), 4940 nM at EML4-ALK (L1196M)-BaF3 (setting [1]), 6100 nM on NPM-ALK-BaF3 and 8510 nM in the test on wild type BaF3 (Table 11).
For `COC(=O)c1ccccc1Nc1nc(Nc2ccc(N3CCOCC3)cc2)nc2cc[nH]c12` [IG-5], the IC50 was 7800 nM against EML4-ALK-BaF3 (Table 11), greater than 10000 nM at EML4-ALK (L1196M)-BaF3 (setting [1]), greater than 10000 nM on NPM-ALK-BaF3 and greater than 10000 nM in the test on wild type BaF3 (Table 11).
For `COC(=O)c1ccccc1Nc1nc(Nc2ccc(N3CCN(C)CC3)cc2)nc2cc[nH]c12` [IG-6], the IC50 is 1370 nM at EML4-ALK-BaF3 (Table 11), 1520 nM at EML4-ALK (L1196M)-BaF3 (setting [1]), 1740 nM on NPM-ALK-BaF3 and roughly 3140 nM with wild type BaF3 (Table 11).
As to `COC(=O)c1ccccc1Nc1nc(Nc2ccc(N3CCC(N4CCCC4)CC3)cc2OC)nc2cc[nH]c12` [IG-7], the IC50 at EML4-ALK-BaF3 (Table 11) was 286 nM; at EML4-ALK (L1196M)-BaF3 (setting [1]), 409 nM; against NPM-ALK-BaF3, 1210 nM; with wild type BaF3 (Table 11), roughly 994 nM.
For `COC(=O)c1ccccc1Nc1nc(Nc2ccc(OCc3ccccn3)cc2)nc2cc[nH]c12` [IG-8], in that order: 1830 nM, 1530 nM, 1670 nM and 3860 nM.
Regarding `Cn1ccc2nc(Nc3ccc(S(N)(=O)=O)cc3)nc(NCc3ccccc3S(C)(=O)=O)c21` [IIK-4], the IC50 on EML4-ALK-BaF3 (Table 12) was greater than 10000 nM; at EML4-ALK (L1196M)-BaF3 (Table 12, read-out: L1196M (IC50 nM)), greater than 10000 nM; in the test on wild type BaF3 (Table 12) it was greater than 10000 nM.
Turning to `CN1CCN(c2ccc(Nc3nc(NCc4ccccc4S(C)(=O)=O)c4[nH]ccc4n3)cc2)CC1` [IN-5], the IC50 against EML4-ALK-BaF3 (Table 11), at EML4-ALK (L1196M)-BaF3 (setting [1]) and on NPM-ALK-BaF3 was greater than 10000 nM each time.
